# In US12097210B2, “Concomitant administration of glucocorticoid receptor modulators and CYP3A inhibitors” (Corcept Therapeutics, Inc., priority 2017, dated 2024):
# Assay: Example 2: effect of a 400 mg single dose of ketoconazole on PK of an 8-day regimen of 300 mg or 600 mg OD mifepristone after moderate fat breakfast
# Format: in vivo, human
# Conditions: for increase in AUC0-24, Day 8 relative to Day 7 / increase in Cmax, Day 8 relative to Day 7: 400 mg ketoconazole on Day 8
# Description: This was an open-label study in healthy male subjects. […] The 400 mg single dose of ketoconazole was given to all subjects on day 8.
# METHODOLOGY: Twelve subjects were enrolled, six in Cohort 1 and 6 in Cohort 2.
# Subjects were discharged on Day 11.
# Subjects were discharged on Day 11. Subjects in both cohorts returned to study center on Day 13 for safety monitoring, collection of the 120-hour PK draw, and completion of the Termination Visit procedures, followed by discharge from the study. To the extent possible, any adverse events deemed study drug-related and that were ongoing at the time of discharge from the study were followed-up to resolution or until a determination was made that the unresolved event was stable.
# DIAGNOSIS AND MAIN […] FOR INCLUSION: Healthy male volunteers between the ages of 18 to 45 years of age with a body mass index (BMI) ranging between 19 and 32 kg/m2 and a weight of at least 60 kg (132 lbs) were enrolled. Subjects had no clinically significant abnormal findings on the physical examination, ECG, blood pressure, heart rate, medical history, or clinical laboratory results during screening. The QTc interval at screening was less than 450 msec.
# DURATION OF TREATMENT: Up to a total of 28 days, including up to 2 weeks screening, dosing on Days 1-8, safety observation, and PK sample collection through Day 13.
# Additionally, comparisons were made between the PK results of cohort 1 and 2. Pharmacokinetic parameters Cmax, T½ and total AUC were calculated for plasma concentrations of ketoconazole following the single dose on Day 8. Descriptive statistics (count, mean, median, standard deviation, minimum, maximum, and % coefficient of variation) were provided. Ketoconazole concentrations were listed and summarized. GM means of Cmax and total AUC were compared for the single dose in this study to the combined data of reported 400 mg single doses of ketoconazole of healthy subjects from the literature.
# [1] = MIFE 300 mg/d with vs without 400 mg Keto
# [2] = MIFE 600 mg/d with vs without 400 mg Keto
# [3] = MIFE 600 vs 300 mg/d, no ketoconazole
# [4] = MIFE 600 vs 300 mg/d, with 400 mg Keto
structure (smiles),measurement,setting,value
"CC#C[C@]1(O)CC[C@H]2[C@@H]3CCC4=CC(=O)CCC4=C3[C@@H](c3ccc(N(C)C)cc3)C[C@@]21C [Mifepristone, 11β-(4-dimethylaminophenyl)-17β-hydroxy-17α-(1-propynyl)-estra-4,9-dien-3-one]","increase in AUC0-24, Day 8 relative to Day 7","Cohort 1, 300 mg OD",25%
same,"increase in Cmax, Day 8 relative to Day 7","Cohort 1, 300 mg OD",20%
same,"increase in AUC0-24, Day 8 relative to Day 7","Cohort 2, 600 mg OD",28%
same,"increase in Cmax, Day 8 relative to Day 7","Cohort 2, 600 mg OD",39%
same,AUC0-24 greater at 600 mg OD than at 300 mg OD,Day 8 with 400 mg ketoconazole,52%
same,Cmax greater at 600 mg OD than at 300 mg OD,Day 8 with 400 mg ketoconazole,65%
same,half-life greater at 600 mg OD than at 300 mg OD,Day 8 with 400 mg ketoconazole,13%
same,"Mean Ratio AUCτ, C1 Day 8/Day 7",[1],1.25
same,"Mean Ratio Cmax, C1 Day 8/Day 7",[1],1.19
same,"Mean Ratio AUCτ, C2 Day 8/Day 7",[2],1.28
same,"Mean Ratio Cmax, C2 Day 8/Day 7",[2],1.39
same,"Mean Ratio AUCτ, Day 7 C2/C1",[3],1.48
same,"Mean Ratio Cmax, Day 7 C2/C1",[3],1.42
same,"Mean Ratio AUCτ, Day 8 C2/C1",[4],1.52
same,"Mean Ratio Cmax, Day 8 C2/C1",[4],1.65
